For 56 compounds, Ki results are on record in ChEMBL document CHEMBL1133531, “Carbonic anhydrase inhibitors: perfluoroalkyl/aryl-substituted derivatives of aromatic/heterocyclic sulfonamides as topical intraocular pressure-lowering agents with prolonged duration of action” (J Med Chem, 2000).

pKi: −log10 of the molar value.

The target in one test is Carbonic anhydrase 1 (Homo sapiens, UniProt P00915).
The target in another test is T1, Carbonic anhydrase 4 (Bos taurus, UniProt Q95323).
T1 sequence (Q95323 whole entry): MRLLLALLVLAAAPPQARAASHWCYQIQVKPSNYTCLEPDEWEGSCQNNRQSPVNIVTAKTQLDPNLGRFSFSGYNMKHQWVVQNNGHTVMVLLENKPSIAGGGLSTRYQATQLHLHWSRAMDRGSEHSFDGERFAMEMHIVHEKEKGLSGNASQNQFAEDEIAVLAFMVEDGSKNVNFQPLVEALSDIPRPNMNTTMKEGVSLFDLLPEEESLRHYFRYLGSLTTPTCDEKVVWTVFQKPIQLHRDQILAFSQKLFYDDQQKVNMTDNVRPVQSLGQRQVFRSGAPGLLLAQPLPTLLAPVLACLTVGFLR

Sequence of Carbonic anhydrase 1 (P00915 whole entry): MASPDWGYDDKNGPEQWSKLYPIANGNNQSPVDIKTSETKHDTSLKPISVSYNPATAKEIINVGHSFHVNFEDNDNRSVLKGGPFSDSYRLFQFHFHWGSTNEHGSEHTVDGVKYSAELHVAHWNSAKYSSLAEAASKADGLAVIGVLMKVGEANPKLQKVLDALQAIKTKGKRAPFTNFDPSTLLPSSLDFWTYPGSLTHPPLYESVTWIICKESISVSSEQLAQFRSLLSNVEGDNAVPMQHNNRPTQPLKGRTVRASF
Description for Carbonic anhydrase 1: Inhibition of human recombinant carbonic anhydrase I (CA1)
Description for Carbonic anhydrase 4: Inhibition of bovine carbonic anhydrase IV (CA4) from bovine lung microsomes

Usually pKi stands for −log10 of the Ki, conventionally taken in molar units. The low end stands for a high Ki, the high end for a low Ki. Consider `NS(=O)(=O)c1nnc(NC(=O)CCNS(=O)(=O)C(F)(F)C(F)(F)C(F)(F)C(F)(F)F)s1`, for which the pKi at Carbonic anhydrase 1 was 6.52; on Carbonic anhydrase 4, 7.96.
Take `NS(=O)(=O)c1ccc(CCNS(=O)(=O)C(F)(F)F)cc1`: the pKi is 4.09 on Carbonic anhydrase 1 and 4.30 on Carbonic anhydrase 4.
Turning to `NS(=O)(=O)c1cccc(NS(=O)(=O)c2ccc(NS(=O)(=O)C(F)(F)C(F)(F)C(F)(F)C(F)(F)F)cc2)c1`, the pKi at Carbonic anhydrase 1 is 5.40; at Carbonic anhydrase 4, 7.44.
Taken in the same sequence, the figures for `NS(=O)(=O)c1ccc(NNS(=O)(=O)C(F)(F)C(F)(F)C(F)(F)C(F)(F)F)cc1` were 4.82 and 6.22.
Regarding `NS(=O)(=O)c1nnc(NC(=O)C(F)(F)C(F)(F)C(F)(F)C(F)(F)C(F)(F)C(F)(F)C(F)(F)C(F)(F)F)s1`, the pKi at Carbonic anhydrase 1 is 6.52; at Carbonic anhydrase 4 it was 7.89.
In the case of `NS(=O)(=O)c1cccc(NS(=O)(=O)c2ccc(NC(=O)c3c(F)c(F)c(F)c(F)c3F)cc2)c1`, the negative-log Ki (pKi) on Carbonic anhydrase 1 is 5.10; at Carbonic anhydrase 4, 7.26.
Turning to `NS(=O)(=O)c1nc2ccc(OC(=O)c3c(F)c(F)c(F)c(F)c3F)cc2s1`, the pKi at Carbonic anhydrase 1 is 6.98; on Carbonic anhydrase 4, 8.05.
Taken in the same sequence, the figures for `NS(=O)(=O)c1ccc(CNS(=O)(=O)C(F)(F)C(F)(F)C(F)(F)C(F)(F)F)cc1` were 4.89 and 6.59.
As to `NS(=O)(=O)c1cc(S(N)(=O)=O)c(NS(=O)(=O)C(F)(F)F)cc1Cl`, the pKi on Carbonic anhydrase 1 is 6.26; on Carbonic anhydrase 4, 6.82.
As for `NS(=O)(=O)c1nc2ccc(OCCOS(=O)(=O)C(F)(F)F)cc2s1`, the results for the pKi on Carbonic anhydrase 1 and at Carbonic anhydrase 4 were 7.30 and 8.15, respectively.
Regarding `NS(=O)(=O)c1ccc(NS(=O)(=O)C(F)(F)C(F)(F)C(F)(F)C(F)(F)F)cc1`, the pKi at Carbonic anhydrase 1 is 4.82; at Carbonic anhydrase 4 it was 6.32.
Taken in the same sequence, the figures for `NS(=O)(=O)c1ccc(NC(=O)c2c(F)c(F)c(F)c(F)c2F)c(Cl)c1` were 5.97 and 6.23.
In the case of `NS(=O)(=O)c1ccc(CCOS(=O)(=O)c2c(F)c(F)c(F)c(F)c2F)cc1`, the pKi on Carbonic anhydrase 1 is 6.52; on Carbonic anhydrase 4 it was 6.99.
Taken in the same sequence, the figures for `NS(=O)(=O)c1ccc(Nc2ccnc(NC(=O)c3c(F)c(F)c(F)c(F)c3F)n2)cc1` were 5.11 and 7.21.
Turning to `NS(=O)(=O)c1nc2ccc(NS(=O)(=O)C(F)(F)C(F)(F)C(F)(F)C(F)(F)C(F)(F)C(F)(F)C(F)(F)C(F)(F)F)cc2s1`, the pKi is 7.31 on Carbonic anhydrase 1 and 8.15 on Carbonic anhydrase 4.
Taken in the same sequence, the figures for `Cn1nc(S(N)(=O)=O)sc1=NS(=O)(=O)C(F)(F)C(F)(F)C(F)(F)C(F)(F)F` were 6.46 and 8.00.
Consider `NS(=O)(=O)c1ccccc1NS(=O)(=O)C(F)(F)F`, for which the pKi at Carbonic anhydrase 1 is 3.76; on Carbonic anhydrase 4, 4.01.
As for `NS(=O)(=O)c1ccc(NNS(=O)(=O)C(F)(F)F)cc1`, the pKi is 3.81 on Carbonic anhydrase 1 and 4.22 on Carbonic anhydrase 4.
Consider `NS(=O)(=O)c1ccc(NS(=O)(=O)C(F)(F)C(F)(F)C(F)(F)C(F)(F)F)c(Cl)c1`, for which the values for the negative-log Ki (pKi) on Carbonic anhydrase 1 and at Carbonic anhydrase 4 were 4.99 and 6.06, respectively.
Taken in the same sequence, the figures for `NS(=O)(=O)c1ccc(NC(=O)C(F)(F)C(F)(F)C(F)(F)C(F)(F)C(F)(F)C(F)(F)C(F)(F)C(F)(F)F)c(Cl)c1` were 5.64 and 6.22.
Take `NS(=O)(=O)c1ccc(NS(=O)(=O)c2c(F)c(F)c(F)c(F)c2F)c(I)c1`: the negative logarithm of the Ki (pKi) at Carbonic anhydrase 1 was 5.76; at Carbonic anhydrase 4 it was 6.17.
For `NS(=O)(=O)c1ccc(NS(=O)(=O)C(F)(F)C(F)(F)C(F)(F)C(F)(F)F)c(I)c1`, the pKi was 4.63 at Carbonic anhydrase 1 and 5.98 on Carbonic anhydrase 4.
Taken in the same sequence, the figures for `NS(=O)(=O)c1cccc(NC(=O)C(F)(F)C(F)(F)C(F)(F)C(F)(F)C(F)(F)C(F)(F)C(F)(F)C(F)(F)F)c1` were 5.80 and 6.03.
For the compound `NS(=O)(=O)c1ccc(NNS(=O)(=O)c2c(F)c(F)c(F)c(F)c2F)cc1`, the negative-log Ki (pKi) at Carbonic anhydrase 1 is 6.00; on Carbonic anhydrase 4, 6.30.
On to `NS(=O)(=O)c1nc2ccc(NS(=O)(=O)C(F)(F)C(F)(F)C(F)(F)C(F)(F)F)cc2s1`, for which the negative logarithm of the Ki (pKi) is 7.27 at Carbonic anhydrase 1 and 8.22 on Carbonic anhydrase 4.
Turning to `Cn1nc(S(N)(=O)=O)s/c1=N/S(=O)(=O)c1ccc(NS(=O)(=O)C(F)(F)C(F)(F)C(F)(F)C(F)(F)C(F)(F)C(F)(F)C(F)(F)C(F)(F)F)cc1`, the pKi was 5.96 on Carbonic anhydrase 1 and 7.60 on Carbonic anhydrase 4.
Taken in the same sequence, the figures for `NS(=O)(=O)c1ccc(Nc2ccnc(NC(=O)C(F)(F)C(F)(F)C(F)(F)C(F)(F)C(F)(F)C(F)(F)C(F)(F)C(F)(F)F)n2)cc1` were 5.36 and 7.44.
Consider `NS(=O)(=O)c1nc2ccc(OS(=O)(=O)C(F)(F)C(F)(F)C(F)(F)C(F)(F)F)cc2s1`, for which the results for the pKi on Carbonic anhydrase 1 and on Carbonic anhydrase 4 were 7.54 and 8.15, respectively.
`NS(=O)(=O)c1cc(S(N)(=O)=O)c(NS(=O)(=O)C(F)(F)F)c(Cl)c1Cl`: the pKi is 5.26 on Carbonic anhydrase 1 and 6.14 on Carbonic anhydrase 4.
Consider `NS(=O)(=O)c1nc2ccc(OS(=O)(=O)c3c(F)c(F)c(F)c(F)c3F)cc2s1`, for which the pKi on Carbonic anhydrase 1 was 7.60; on Carbonic anhydrase 4, 8.22.
As to `NS(=O)(=O)c1ccc(CCNC(=O)C(F)(F)C(F)(F)C(F)(F)C(F)(F)C(F)(F)C(F)(F)C(F)(F)C(F)(F)F)cc1`, the pKi at Carbonic anhydrase 1 is 6.02; on Carbonic anhydrase 4, 6.28.
`NS(=O)(=O)c1ccc(Nc2ccnc(NS(=O)(=O)C(F)(F)C(F)(F)C(F)(F)C(F)(F)F)n2)cc1`: the pKi was 5.22 at Carbonic anhydrase 1 and 7.52 at Carbonic anhydrase 4.
Taken in the same sequence, the figures for `NS(=O)(=O)c1ccc(CNS(=O)(=O)c2c(F)c(F)c(F)c(F)c2F)cc1` were 6.10 and 6.62.
`NS(=O)(=O)c1cc(S(N)(=O)=O)c(NS(=O)(=O)C(F)(F)C(F)(F)C(F)(F)C(F)(F)F)c(Cl)c1Cl`: the pKi at Carbonic anhydrase 1 was 5.29; on Carbonic anhydrase 4, 6.80.
As for `NS(=O)(=O)c1ccc(NS(=O)(=O)C(F)(F)F)c(Cl)c1`, the figures for the pKi at Carbonic anhydrase 1 and at Carbonic anhydrase 4 were 3.74 and 4.38, respectively.
On to `NS(=O)(=O)c1nc2ccc(OC(=O)C(F)(F)C(F)(F)C(F)(F)C(F)(F)C(F)(F)C(F)(F)C(F)(F)C(F)(F)F)cc2s1`, for which the results for the pKi at Carbonic anhydrase 1 and at Carbonic anhydrase 4 were 7.43 and 7.85, respectively.
Taken in the same sequence, the figures for `NS(=O)(=O)c1ccc(NC(=O)C(F)(F)C(F)(F)C(F)(F)C(F)(F)C(F)(F)C(F)(F)C(F)(F)C(F)(F)F)c(I)c1` were 5.52 and 6.17.
Take `NS(=O)(=O)c1ccc(NC(=O)c2c(F)c(F)c(F)c(F)c2F)c(I)c1`: the values for the pKi at Carbonic anhydrase 1 and at Carbonic anhydrase 4 were 5.59 and 5.98, respectively.
As to `NS(=O)(=O)c1ccc(NS(=O)(=O)C(F)(F)C(F)(F)C(F)(F)C(F)(F)F)c(F)c1`, the figures for the pKi at Carbonic anhydrase 1 and on Carbonic anhydrase 4 were 5.97 and 6.70, respectively.
For `NS(=O)(=O)c1cccc(NS(=O)(=O)c2ccc(NS(=O)(=O)C(F)(F)F)cc2)c1`, the pKi at Carbonic anhydrase 1 is 5.30; at Carbonic anhydrase 4 it was 7.35.
Turning to `NS(=O)(=O)c1nnc(NC(=O)CCNC(=O)C(F)(F)C(F)(F)C(F)(F)C(F)(F)C(F)(F)C(F)(F)C(F)(F)C(F)(F)F)s1`, the results for the pKi at Carbonic anhydrase 1 and at Carbonic anhydrase 4 were 6.52 and 8.10, respectively.
As to `NS(=O)(=O)c1cccc(NS(=O)(=O)C(F)(F)C(F)(F)C(F)(F)C(F)(F)F)c1`, the results for the pKi at Carbonic anhydrase 1 and on Carbonic anhydrase 4 were 4.74 and 6.23, respectively.
As to `NS(=O)(=O)c1cc(S(N)(=O)=O)c(NC(=O)C(F)(F)C(F)(F)C(F)(F)C(F)(F)C(F)(F)C(F)(F)C(F)(F)C(F)(F)F)cc1Cl`, the negative-log Ki (pKi) on Carbonic anhydrase 1 is 6.09; at Carbonic anhydrase 4, 6.89.
Turning to `NS(=O)(=O)c1cc(S(N)(=O)=O)c(NS(=O)(=O)c2c(F)c(F)c(F)c(F)c2F)cc1Cl`, the negative-log Ki (pKi) was 6.52 at Carbonic anhydrase 1 and 7.59 at Carbonic anhydrase 4.
Turning to `NS(=O)(=O)c1cc(S(N)(=O)=O)c(NS(=O)(=O)c2c(F)c(F)c(F)c(F)c2F)c(Cl)c1Cl`, the pKi on Carbonic anhydrase 1 is 5.82; on Carbonic anhydrase 4 it was 6.85.
Take `NS(=O)(=O)c1nc2ccc(NC(=O)c3c(F)c(F)c(F)c(F)c3F)cc2s1`: the pKi at Carbonic anhydrase 1 was 6.92; at Carbonic anhydrase 4, 8.10.
Take `NS(=O)(=O)c1ccc(NS(=O)(=O)c2ccc(NS(=O)(=O)c3c(F)c(F)c(F)c(F)c3F)cc2)cc1`: the pKi on Carbonic anhydrase 1 is 6.90; at Carbonic anhydrase 4, 7.82.
With `NS(=O)(=O)c1nnc(NS(=O)(=O)c2ccc(NS(=O)(=O)C(F)(F)C(F)(F)C(F)(F)C(F)(F)F)cc2)s1`, the pKi on Carbonic anhydrase 1 was 6.05; on Carbonic anhydrase 4, 7.77.
Taken in the same sequence, the figures for `NS(=O)(=O)c1ccc(CNC(=O)C(F)(F)C(F)(F)C(F)(F)C(F)(F)C(F)(F)C(F)(F)C(F)(F)C(F)(F)F)cc1` were 6.00 and 6.12.
Taken in the same sequence, the figures for `NS(=O)(=O)c1nnc(NC(=O)CCNC(=O)c2c(F)c(F)c(F)c(F)c2F)s1` were 6.52 and 8.00.
Taken in the same sequence, the figures for `NS(=O)(=O)c1ccc(NS(=O)(=O)c2ccc(NC(=O)C(F)(F)C(F)(F)C(F)(F)C(F)(F)C(F)(F)C(F)(F)C(F)(F)C(F)(F)F)cc2)cc1` were 5.62 and 7.60.
In the case of `NS(=O)(=O)c1ccc(CNC(=O)c2c(F)c(F)c(F)c(F)c2F)cc1`, the pKi at Carbonic anhydrase 1 is 6.01; on Carbonic anhydrase 4, 6.46.
With `NS(=O)(=O)c1ccccc1NS(=O)(=O)C(F)(F)C(F)(F)C(F)(F)C(F)(F)C(F)(F)C(F)(F)C(F)(F)C(F)(F)F`, the pKi at Carbonic anhydrase 1 is 5.82; at Carbonic anhydrase 4, 5.92.
Taken in the same sequence, the figures for `NS(=O)(=O)c1ccc(CCNS(=O)(=O)c2c(F)c(F)c(F)c(F)c2F)cc1` were 6.12 and 6.64.
`NS(=O)(=O)c1cccc(NS(=O)(=O)C(F)(F)C(F)(F)C(F)(F)C(F)(F)C(F)(F)C(F)(F)C(F)(F)C(F)(F)F)c1`: the pKi on Carbonic anhydrase 1 was 5.85; on Carbonic anhydrase 4, 6.06.
For `Cn1nc(S(N)(=O)=O)s/c1=N/C(=O)c1c(F)c(F)c(F)c(F)c1F`, the pKi on Carbonic anhydrase 1 was 6.57; on Carbonic anhydrase 4 it was 8.10.
